Data set [1] deals with T1, NLRP3 (Homo sapiens, UniProt Q96P20). Description: Human whole blood IL1β release assay (LPS + nigericin, AlphaLisa IL-1β; HWB IC50). Also noted: Human whole blood in Li-heparin tubes was obtained from healthy donors from a volunteer donor panel; from tissue; host or cells: human whole blood from healthy donors. The note with it: IL-1β release. Format: cell-based. The method, boiled down: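 Donor Li-heparin whole blood primed with 1 μg/ml LPS, given compound (8-point half-log series, 10 μM top; DMSO 0.1% final) for 3 h at 37 °C, then nigericin 10 μM final for 1 h. Supernatant IL-1β measured by AlphaLisa; IC50 from 4-parameter variable-slope fit.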
In general terms: Alpha assays give light when donor and acceptor beads are brought close together.

Data set [2] has as its target T1, NLRP3. The experiment in a line: THP-1 cells pyroptosis assay (LPS + nigericin, resazurin readout; THP IC50). The data set is classed as cell-based. Also noted: Seed THP-1 cells (25,000 cells/well) containing 1.0 μg/ml LPS in 40 μl of RPMI medium; host or cells: THP-1 cells. The method, boiled down:
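Human THP-1 cells, 25,000/well in serum-free RPMI with 1 μg/ml LPS, treated 3 hrs at 37° C with compound (8-point half-log, 10 μM top, 0.1% DMSO), then 5 μM nigericin 1 hr. Viability by 100 μM resazurin fluorescence after 1-2 hrs; IC50 by 4-parameter fit.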

Data set [3] is described as follows: PK protocol, intravenous administration. The note with it: male, Sprague Dawley, plasma, dose 1 mg/kg, rat; for Vd: read-out: Vdss. Format: in vivo, male Sprague Dawley rats. On the procedure: Pharmacokinetic parameters were determined in male Sprague Dawley rats (Charles River, UK, 250-350 g; or Vital River Laboratory Animal Technology Co Ltd, Beijing, China, 7-9 weeks old). Animals were individually housed during the study and maintained under a 12 h light/dark cycle. Animals had free access to food and water.
For intravenous administration, compounds were formulated as a solution in water or DMSO:PBS [10:90] in 2 mL/kg dosing volume and administered via tail vein. For oral administration, compounds were formulated as a solution in DMSO:water [10:90] in 5 mL/kg dosing volume and administered orally.
Serial blood samples (about 120-300 μL) were taken from each animal at each of 8 time-points post dose (0.083, 0.25, 0.5, 1, 2, 4, 8 and 24 h) or at each of 12 time-points post dose (0.03, 0.1, 0.17, 0.25, 0.5, 1, 2, 4, 6, 8, 12 and 24 h) or pre-dose and at each of 9 time-points post dose (0.25, 0.5, 1, 2, 4, 6, 8, 12 and 24 h). Samples were held on ice for no longer than 30 minutes before centrifugation (10,000 rpm (8,385 g) for 3 minutes; or 5,696 rpm (3,000 g) for 15 minutes) for plasma generation. Plasma was frozen on dry ice prior to bioanalysis. PK parameters were generated from LC-MS/MS data using Dotmatics or Phoenix WinNonlin 6.3 software.

Where a name gives a salt, the structure may show the parent alone.

T1 sequence (Q96P20 whole entry): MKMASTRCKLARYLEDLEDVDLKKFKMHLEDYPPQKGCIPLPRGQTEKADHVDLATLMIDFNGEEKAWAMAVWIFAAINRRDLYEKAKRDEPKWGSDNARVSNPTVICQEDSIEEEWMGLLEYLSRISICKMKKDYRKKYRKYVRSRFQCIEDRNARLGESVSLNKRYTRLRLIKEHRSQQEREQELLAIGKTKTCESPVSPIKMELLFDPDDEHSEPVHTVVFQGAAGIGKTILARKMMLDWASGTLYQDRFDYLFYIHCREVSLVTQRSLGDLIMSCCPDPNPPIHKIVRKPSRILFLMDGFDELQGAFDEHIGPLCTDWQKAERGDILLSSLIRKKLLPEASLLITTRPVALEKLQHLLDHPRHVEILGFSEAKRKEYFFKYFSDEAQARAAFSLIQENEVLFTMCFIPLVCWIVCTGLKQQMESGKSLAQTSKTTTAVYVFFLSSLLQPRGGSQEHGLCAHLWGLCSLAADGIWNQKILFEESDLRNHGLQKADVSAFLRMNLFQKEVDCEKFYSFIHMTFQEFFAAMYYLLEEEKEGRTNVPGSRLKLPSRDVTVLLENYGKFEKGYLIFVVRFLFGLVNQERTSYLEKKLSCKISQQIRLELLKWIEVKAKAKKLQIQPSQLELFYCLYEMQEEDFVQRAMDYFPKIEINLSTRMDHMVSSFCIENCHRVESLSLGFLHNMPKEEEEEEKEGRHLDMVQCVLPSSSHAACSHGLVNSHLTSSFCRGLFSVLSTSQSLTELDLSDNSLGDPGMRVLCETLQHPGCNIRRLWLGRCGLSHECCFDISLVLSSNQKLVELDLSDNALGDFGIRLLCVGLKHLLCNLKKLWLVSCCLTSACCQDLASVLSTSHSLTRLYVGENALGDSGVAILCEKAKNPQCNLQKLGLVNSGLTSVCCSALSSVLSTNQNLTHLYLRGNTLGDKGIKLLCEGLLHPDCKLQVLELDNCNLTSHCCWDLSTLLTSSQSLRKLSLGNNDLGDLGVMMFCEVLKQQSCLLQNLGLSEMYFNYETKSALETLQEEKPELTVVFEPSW

The term IC50 denotes the concentration needed to halve the response being measured. As usually defined, the AUC is the area under the concentration-time curve, a measure of exposure. As usually defined, the clearance is a measure of how efficiently the substance is removed, as volume per time. Higher therefore signals efficient removal. Usually half-life stands for the time needed for the level to fall by half in the phase considered. For the molecule `CC(C)c1cc(F)cc(C2CCOCC2)c1NC(=O)NS(=O)(=O)c1cc(C(=O)N(C)C)n(C)n1` [Example 30, 3-(N-((4-Fluoro-2-iso-propyl-6-(tetrahydro-2H-pyran-4-yl)phenyl)carbamoyl)sulfamoyl)-N,N,1-trimethyl-1H-pyrazole-5-carboxamide, sodium salt], at NLRP3 [1], the IC50 is not above 500 nM. Moreover, the IC50 on NLRP3 [2] was not above 5000 nM. For the same molecule, in data set [3], the AUC stood at 182 ng·h/mL, the clearance came out at 91.3 mL/min/kg, the half-life is 2.3 h and the Vd is 2.72 L/kg.

With `CC(C)c1cc(F)cc(-c2cccnc2)c1NC(=O)NS(=O)(=O)c1cc(C(=O)N(C)C)n(C)n1` [Example 33, 3-(N-((4-Fluoro-2-iso-propyl-6-(pyridin-3-yl)phenyl)carbamoyl)sulfamoyl)-N,N,1-trimethyl-1H-pyrazole-5-carboxamide, sodium salt], the half-inhibitory concentration (IC50) on NLRP3 [1] was not above 500 nM. Moreover, at NLRP3 [2], the concentration for half-maximal inhibition (IC50) was not above 500 nM. For the same molecule, in data set [3], the AUC was 274 ng·h/mL, the clearance is 60.7 mL/min/kg, the half-life was 6.3 h and the Vd was 3.95 L/kg.

As for `COc1cc(-c2cc(F)cc(C(C)C)c2NC(=O)NS(=O)(=O)c2cncc(N(C)C)n2)ccn1` [Example 103, 6-(Dimethylamino)-N-((4-fluoro-2-isopropyl-6-(2-methoxypyridin-4-yl)phenyl)carbamoyl)pyrazine-2-sulfonamide], the IC50 on NLRP3 [2] was not above 500 nM. In addition, in data set [3], the exposure (AUC) was 346 ng·h/mL, the clearance came out at 48.1 mL/min/kg, the half-life was 2.2 h and the Vd was 1.77 L/kg.

For `CC(C)c1cc(F)cc(-c2cnn(C)c2)c1NC(=O)NS(=O)(=O)c1cc(C(=O)N(C)C)n(C)n1` [Example 34, 3-(N-((4-Fluoro-2-iso-propyl-6-(1-methyl-1H-pyrazol-4-yl)phenyl)carbamoyl)sulfamoyl)-N,N,1-trimethyl-1H-pyrazole-5-carboxamide, sodium salt], the half-inhibitory concentration (IC50) on NLRP3 [1] is not above 500 nM. In addition, at NLRP3 [2], the IC50 is not above 1000 nM. Further, in data set [3], the AUC was 661 ng·h/mL, the clearance is 25.2 mL/min/kg, the half-life was 12.1 h and the Vd came to 3.03 L/kg.

On to `COc1cc(-c2ccc3c(c2NC(=O)NS(=O)(=O)c2cncc(N(C)C)n2)CCC3)ccn1` [Example 104, 6-(Dimethylamino)-N-((5-(2-methoxypyridin-4-yl)-2,3-dihydro-1H-inden-4-yl)carbamoyl)pyrazine-2-sulfonamide], for which the concentration for half-maximal inhibition (IC50) on NLRP3 [2] is not above 500 nM. Also, in data set [3], the AUC worked out at 841 ng·h/mL, the clearance was found to be 19.8 mL/min/kg, the half-life is 1.2 h and the Vd turned out to be 1.04 L/kg.

With `COc1cc(-c2ccc3c(c2NC(=O)NS(=O)(=O)N(C)C2CCN(C)C2)CCC3)ccn1` (stereo not drawn) [Example 122, 3-(N-Methyl-N-(1-methylpyrrolidin-3-yl)sulfamoyl)-1-(5-(2-methoxypyridin-4-yl)-2,3-dihydro-1H-inden-4-yl)urea], at NLRP3 [1], the IC50 was not above 500 nM. In addition, on NLRP3 [2], the 50% inhibitory concentration (IC50) was not above 500 nM. Further, in data set [3], the area under the curve (AUC) was found to be 1320 ng·h/mL, the clearance worked out at 12.6 mL/min/kg, the half-life was 11.1 h and the Vd was 8.69 L/kg.

In the case of `CC(C)c1cc(F)cc(-c2cccnc2)c1NC(=O)NS(=O)(=O)c1cc(CN(C)C)n(C)n1` [Example 44, 5-((Dimethylamino)methyl)-N-((4-fluoro-2-isopropyl-6-(pyridin-3-yl)phenyl)carbamoyl)-1-methyl-1H-pyrazole-3-sulfonamide], the half-inhibitory concentration (IC50) at NLRP3 [1] was not above 500 nM. At NLRP3 [2], the 50% inhibitory concentration (IC50) was not above 500 nM. Besides, in data set [3], the AUC amounted to 259 ng·h/mL, the clearance is 64.9 mL/min/kg, the half-life is 0.5 h and the Vd is 0.75 L/kg.

With `CC(C)c1cc(F)cc(-c2cccc(C#N)c2)c1NC(=O)NS(=O)(=O)c1cc(CN(C)C)n(C)n1` [Example 38, N-((3′-Cyano-5-fluoro-3-iso-propyl-[1,1′-biphenyl]-2-yl)carbamoyl)-5-((dimethylamino)methyl)-1-methyl-1H-pyrazole-3-sulfonamide], at NLRP3 [1], the IC50 was not above 500 nM. For the same molecule, at NLRP3 [2], the half-maximal inhibitory concentration (IC50) was not above 500 nM. In data set [3], the area under the curve (AUC) is 375 ng·h/mL, the clearance was 51.5 mL/min/kg, the half-life is 1.2 h and the Vd is 1.14 L/kg.

Regarding `CN(C)CCn1ccc(S(=O)(=O)NC(=O)Nc2c(-c3cccnc3)cc(F)c3c2CCC3)n1` [Example 62, 1-(2-(Dimethylamino)ethyl)-N-((7-fluoro-5-(pyridin-3-yl)-2,3-dihydro-1H-inden-4-yl)carbamoyl)-1H-pyrazole-3-sulfonamide], the half-maximal inhibitory concentration (IC50) is not above 5000 nM on NLRP3 [1] and not above 500 nM at NLRP3 [2].

As for `COc1cc(-c2ccc3c(c2NC(=O)NS(=O)(=O)c2cnc(=O)n(C(C)C)c2)CCC3)ccn1` [Example 95, 1-Isopropyl-N-((5-(2-methoxypyridin-4-yl)-2,3-dihydro-1H-inden-4-yl)carbamoyl)-2-oxo-1,2-dihydropyrimidine-5-sulfonamide, sodium salt], the IC50 was not above 1000 nM on NLRP3 [1] and not above 500 nM on NLRP3 [2].

Turning to `CC(C)(O)Cn1ccc(S(=O)(=O)NC(=O)Nc2c(-c3ccnc(C#N)c3)ccc3c2CCC3)n1` [Example 183, N-((5-(2-Cyanopyridin-4-yl)-2,3-dihydro-1H-inden-4-yl)carbamoyl)-1-(2-hydroxy-2-methylpropyl)-1H-pyrazole-3-sulfonamide, sodium salt], the 50% inhibitory concentration (IC50) on NLRP3 [1] and at NLRP3 [2] was not above 500 nM throughout.

As for `COc1cc(-c2ccc3c(c2NC(=O)NS(=O)(=O)c2ccn(C[C@@H](C)O)n2)CCC3)ccn1` [Example 184, (R)-1-(2-Hydroxypropyl)-N-((5-(2-methoxypyridin-4-yl)-2,3-dihydro-1H-inden-4-yl)carbamoyl)-1H-pyrazole-3-sulfonamide], the half-inhibitory concentration (IC50) at NLRP3 [1] and on NLRP3 [2] was not above 500 nM throughout.

On to `COCc1cc(-c2ccc3c(c2NC(=O)NS(=O)(=O)c2ccn(C(C)C)n2)CCC3)ccn1` [Example 296, 1-Isopropyl-N-((5-(2-(methoxymethyl)pyridin-4-yl)-2,3-dihydro-1H-inden-4-yl)carbamoyl)-1H-pyrazole-3-sulfonamide, sodium salt], for which the IC50 at NLRP3 [1] and on NLRP3 [2] was not above 500 nM each time.

As to `CC(C)n1ccc(S(=O)(=O)NC(=O)Nc2c(-c3ccnc(C#N)c3)cc(Cl)c3c2CCC3)n1` [Example 225, N-((7-Chloro-5-(2-cyanopyridin-4-yl)-2,3-dihydro-1H-inden-4-yl)carbamoyl)-1-isopropyl-1H-pyrazole-3-sulfonamide, sodium salt], the concentration for half-maximal inhibition (IC50) at NLRP3 [1] is not above 5000 nM; at NLRP3 [2], not above 500 nM.

For the molecule `COc1cc(-c2ccc3c(c2NC(=O)NS(=O)(=O)c2cnc(N(C)C)cn2)CCC3)ccn1` [Example 108, 5-(Dimethylamino)-N-((5-(2-methoxypyridin-4-yl)-2,3-dihydro-1H-inden-4-yl)carbamoyl)pyrazine-2-sulfonamide], the figures for the concentration for half-maximal inhibition (IC50) at NLRP3 [1] and on NLRP3 [2] were not above 5000 nM and not above 500 nM, respectively.

With `COc1cc(-c2ccc3c(c2NC(=O)NS(=O)(=O)c2cnn(CC(F)F)c2)CCC3)ccn1` [Example 235, 1-(2,2-Difluoroethyl)-N-((5-(2-methoxypyridin-4-yl)-2,3-dihydro-1H-inden-4-yl)carbamoyl)-1H-pyrazole-4-sulfonamide, sodium salt], the IC50 on NLRP3 [1] and at NLRP3 [2] was not above 500 nM in each case.

Take `COc1cc(-c2cc(F)c3c(c2NC(=O)NS(=O)(=O)N2C[C@H]4C[C@@H]2CN4C)CCC3)ccn1` [Example 126, (1R,4R)—N-((7-Fluoro-5-(2-methoxypyridin-4-yl)-2,3-dihydro-1H-inden-4-yl)carbamoyl)-5-methyl-2,5-diazabicyclo[2.2.1]heptane-2-sulfonamide]: the IC50 on NLRP3 [1] and on NLRP3 [2] was not above 500 nM each time.

Take `COc1cc(-c2ccc3c(c2NC(=O)NS(=O)(=O)N2CC4CCN(C)C4C2)CCC3)ccn1` (stereo not drawn) [Example 320, N-((5-(2-Methoxypyridin-4-yl)-2,3-dihydro-1H-inden-4-yl)carbamoyl)-1-methylhexahydropyrrolo[3,4-b]pyrrole-5(1H)-sulfonamide, potassium salt]: the IC50 on NLRP3 [1] and at NLRP3 [2] was not above 500 nM each time.

Source of the values: US20200361895A1, “NOVEL SULFONAMIDE CARBOXAMIDE COMPOUNDS” (Inflazome Limited, priority 2017, published 2020).
